{"source": "the supplement of paper PMC10307832", "assay_in_all_cases": "relative viability (nuclei count vs DMSO), 5 days (fraction); higher = more cells survive", "key": {"kb NB 142-70 + Lapatinib": {"compound": "C1CSC2=C(C(=O)N1)SC3=C2C=C(C=C3)O [kb NB 142-70] + CS(=O)(=O)CCNCc1ccc(-c2ccc3ncnc(Nc4ccc(OCc5cccc(F)c5)c(Cl)c4)c3c2)o1 [Lapatinib] (partner 2 µM)", "procedure,_shortened": "(§1)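 Relative viability divides the nuclei count in treated wells by that in vehicle wells. Lung cancer cell lines were seeded in 1536-well plates, dosed by pin tool the next day, and fixed and stained after 5 days in one step with final 0.05% Triton X-100, 1% formaldehyde and 1 ug/ml Hoechst. Dosing was a single drug or a fixed anchor-drug dose plus five library-drug doses (not always all listed) in √10 steps, and values are medians of duplicate plates imaged at 4×.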"}, "[1]": {"compound": "NCC(=O)Nc1ccc(-n2nc(C(F)(F)F)cc2-c2ccc3c(ccc4ccccc43)c2)cc1 + O=C(CCCCCCC(=O)Nc1ccccc1)NO [Vorinostat] (partner 1 µM)", "procedure,_shortened": "as §1"}, "[2]": {"compound": "NCC(=O)Nc1ccc(-n2nc(C(F)(F)F)cc2-c2ccc3c(ccc4ccccc43)c2)cc1 + CC(=O)c1c(C)c2cnc(Nc3ccc(N4CCNCC4)cn3)nc2n(C2CCCC2)c1=O [Palbociclib] (partner 0.5 µM)", "procedure,_shortened": "as §1"}, "[3]": {"compound": "NCC(=O)Nc1ccc(-n2nc(C(F)(F)F)cc2-c2ccc3c(ccc4ccccc43)c2)cc1 + CC(=O)Nc1cccc(-n2c(=O)n(C3CC3)c(=O)c3c(Nc4ccc(I)cc4F)n(C)c(=O)c(C)c32)c1 [Trametinib] (partner 0.02 µM)", "procedure,_shortened": "as §1"}}, "data": [{"cell line": "UMC-11", "values": [{"measurement": "relative viability", "setting": "kb NB 142-70 + Lapatinib; first compound 0.1 µM", "value": 0.964}, {"measurement": "relative viability", "setting": "kb NB 142-70 + Lapatinib; first compound 1 µM", "value": 0.836}, {"measurement": "relative viability", "setting": "kb NB 142-70 + Lapatinib; first compound 3.162 µM", "value": 0.535}, {"measurement": "relative viability", "setting": "[1]; first compound 0.02 µM", "value": 0.337}, {"measurement": "relative viability", "setting": "[1]; first compound 0.06325 µM", "value": 0.434}, {"measurement": "relative viability", "setting": "[1]; first compound 0.2 µM", "value": 0.511}, {"measurement": "relative viability", "setting": "[1]; first compound 0.6325 µM", "value": 0.355}, {"measurement": "relative viability", "setting": "[1]; first compound 2 µM", "value": 0.383}, {"measurement": "relative viability", "setting": "[2]; first compound 0.02 µM", "value": 0.301}, {"measurement": "relative viability", "setting": "[2]; first compound 0.06325 µM", "value": 0.305}, {"measurement": "relative viability", "setting": "[2]; first compound 0.2 µM", "value": 0.297}, {"measurement": "relative viability", "setting": "[2]; first compound 0.6325 µM", "value": 0.325}, {"measurement": "relative viability", "setting": "[2]; first compound 2 µM", "value": 0.344}, {"measurement": "relative viability", "setting": "[3]; first compound 0.02 µM", "value": 0.645}, {"measurement": "relative viability", "setting": "[3]; first compound 0.06325 µM", "value": 0.85}, {"measurement": "relative viability", "setting": "[3]; first compound 0.2 µM", "value": 0.751}, {"measurement": "relative viability", "setting": "[3]; first compound 0.6325 µM", "value": 0.773}, {"measurement": "relative viability", "setting": "[3]; first compound 2 µM", "value": 0.747}]}]}
